Experiment [1] has as its target T1, Syk protein (UniProt P48025).
T1 construct: none given for this test; fused on or other part: probably GST at the N-terminus (GST:Syk 6-242), if the ADA protein was also used here
The experiment is described as follows: In vitro affinity for Syk by fluorescence spectroscopy (spectrofluorometry). The class given is binding. The settings on record: read-out: Kd: dissociation constant with respect to Syk. The method, then: The dissociation constant of the molecules according to the invention with respect to Syk protein may particularly be measured in vitro by means of fluorescence spectroscopy (or spectrofluorometry).
Finally, the in vitro affinity of the molecule C-13 and some of the 87 molecules mentioned above for Syk protein was measured by means of fluorescence spectroscopy (or spectrofluorometry) and is expressed by the dissociation constant (or Kd) in μmole/liter (μM).

The target of experiment [2] is T2, murine Syk tyrosine kinase protein (GST:Syk 6-242) (Mus musculus, UniProt P48025).
T2 construct: made in house
The experiment is described as follows: ADA method: displacement of the binding of scFv G4G11 with Syk (ELISA). The settings on record: for inhibition at 10 µM: small molecules at 10 μM, scFv G4G11 100 nM, read-out: In vit. inhib.: mean inhibition % of the binding of scFv G4G11 with Syk in the ADA method. In outline:
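GST:Syk 6-242 (murine) was immobilised at 10 μg ml^−1 and pre-incubated 1 h at ambient temperature with compounds at 10 μM final in PBS. scFv G4G11 was then added at 100 nM for 1 h. Bound scFv was detected via its C-terminal c-myc tag with HRP-9E10, and % inhibition was taken from signals with versus without compound.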

The values that follow come from patent US9504676B2, “Molecules inhibiting a metabolic pathway involving the Syk protein tyrosine kinase and method for identifying said molecules” (CENTRE NATIONAL DE LA RECHERCHE SCIENTIFIQUE, priority 2008, dated 2016).

On to `O=C(C1=C(O)C(=O)N(Cc2cccnc2)C1c1cccc(Oc2ccccc2)c1)c1ccc(Cl)cc1` (centres unmarked) [Molecule 1, 4-(4-chlorobenzoyl)-3-hydroxy-5-(3-phenoxyphenyl)-1-(3-pyridinylmethyl)-1,5-dihydro-2H-pyrrol-2-one], for which the Kd in experiment [1] stood at 5 µM. Moreover, the inhibition at 10 µM in experiment [2] stood at 86.5%.

In the case of `COc1ccc(C2C(C(=O)c3cccs3)=C(O)C(=O)N2CCCn2ccnc2)c(OC)c1` (centres unmarked) [Molecule 2], the Kd in experiment [1] came to 16.3 µM. Besides, the inhibition at 10 µM in experiment [2] was 81%.

For the compound `CCOC(=O)C1=C(C)NC2=C(C(=O)c3ccccc32)C1c1cc(Br)ccc1OCC(=O)O` (centres unmarked) [Molecule 3, {4-bromo-2-[3-(ethoxy carbonyl)-2-methyl-5-oxo-4,5-dihydro-1H-indeno[1,2-b]pyridin-4-yl]phenoxy} acetic acid], the Kd in experiment [1] was found to be 6.2 µM. Also, the inhibition at 10 µM in experiment [2] is 81%.

`COc1cccc(C2C(C(=O)c3ccc(C)cc3)=C(O)C(=O)N2CCCN2CCOCC2)c1` (centres unmarked) [Molecule 4, 3-hydroxy-5-(3-methoxyphenyl)-4-(4-methylbenzoyl)-1-[3-(4-morpholinyl)propyl]-1,5-dihydro-2H-pyrrol-2-one]: the Kd in experiment [1] is 9.4 µM. In addition, the inhibition at 10 µM in experiment [2] turned out to be 79.5%.

As for `CCOC(=O)c1ccc(N2C(=O)C(O)=C(C(=O)c3ccccc3)C2c2ccc(ON)cc2OC)cc1` (centres unmarked) [Molecule 6], the Kd in experiment [1] turned out to be 6.1 µM. In experiment [2], the inhibition at 10 µM was 73.5%.

Regarding `CCOC(=O)c1sc(N2C(=O)C(O)=C(C(=O)c3ccc(F)cc3)C2c2ccc(C)cc2)nc1C` (centres unmarked) [Molecule 10, ethyl 2-[3-(4-fluorobenzoyl)-4-hydroxy-2-(4-methylphenyl)-5-oxo-2,5-dihydro-1H-pyrrol-1-yl]-4-methyl-1,3-thiazole-5-carboxylate], the Kd in experiment [1] worked out at 6.3 µM. For the same compound, the inhibition at 10 µM in experiment [2] was 71%.

Turning to `COc1ccccc1C(=O)Nc1ccc(-c2nnc(SCC(=O)c3ccccc3)n2C)cc1` [Molecule 15, 2-methoxy-N-(4-(4-methyl-5-[(2-oxo-2-phenylethyl)thio]-4H-1,2,4-triazol-3-yl)phenyl)benzamide], the Kd in experiment [1] is 5.6 µM. In experiment [2], the inhibition at 10 µM turned out to be 67.5%.

As to `COc1ccc(C)cc1NC(=O)c1ccc(CN2CCC(Cc3ccccc3)CC2)cc1` [Molecule 17, 4-[(4-benzyl-1-piperidinyl)methyl}-N-(2-methoxy-5-methylphenyl)benzamide], in experiment [1], the Kd was 17.9 µM. For the same compound, the inhibition at 10 µM in experiment [2] worked out at 63%.

For `COc1ccc(S(=O)(=O)N(CCc2ccccc2)CC(=O)Nc2ccc(C(N)=O)cc2)cc1` [Molecule 18], the Kd in experiment [1] amounted to 0.8 µM. Moreover, in experiment [2], the inhibition at 10 µM was determined as 63%.

As for `O=C(NCc1nnc(NCc2nc3ccccc3c(=O)[nH]2)n1-c1ccccc1)c1ccccc1F` [Molecule 29], the Kd in experiment [1] amounted to 6.7 µM. In addition, in experiment [2], the inhibition at 10 µM was 53.5%.

In the case of `O=C(Nc1ccccc1)c1ccc(NCCN2CCOCC2)c(S(=O)(=O)N2CCOCC2)c1` [Molecule 46, 4-{[2-(4-morpholinyl)ethyl]amino}-3-(4-morpholinylsulphonyl)-N-phenylbenzamide], in experiment [1], the Kd amounted to 3 µM. Further, the inhibition at 10 µM in experiment [2] was 48%.

As to `Cc1cc(C(=O)Nc2ccccc2C(=O)O)ccc1NC(=O)COc1ccc(C(C)C)cc1` [Molecule 49, 2-[(4-{[(4-isopropylphenoxy)acetyl]amino}-3-methylbenzoyl)amino] benzoic acid], the Kd in experiment [1] was 5.5 µM. For the same compound, in experiment [2], the inhibition at 10 µM was 46.5%.

In the case of `CCOC(=O)c1ccc(NC(=O)CSc2nnc(-c3ccco3)c(-c3ccco3)n2)cc1` [Molecule 54, ethyl 4-({[(5,6-di-2-furyl-1,2,4-triazin-3-yl)thio]acetyl}amino)benzoate], in experiment [1], the Kd was 1.6 µM. For the same compound, in experiment [2], the inhibition at 10 µM stood at 43%.

Take `COc1cc(-c2nnc(SCC(=O)Nc3ccc(Cl)cc3)n2CCc2ccccc2)cc(OC)c1OC` [Molecule 59]: the dissociation constant Kd in experiment [1] stood at 8.2 µM. In addition, the inhibition at 10 µM in experiment [2] was found to be 40%.

With `CCOC(=O)c1ccc(NC(=O)CC2C(=O)N(c3ccc(Cl)cc3)C(=S)N2Cc2cccnc2)cc1` (centres unmarked) [Molecule 61], in experiment [1], the equilibrium dissociation constant (Kd) is 21.8 µM. Besides, the inhibition at 10 µM in experiment [2] stood at 39.5%.

For the compound `C=CCn1c(SCC(=O)Nc2cccc(OC)c2)nnc1C(C)NC(=O)c1ccccc1` (centres unmarked) [Molecule 66, N-{1-[4-allyl-5-({2-[(3-methoxyphenyl)amino]-2-oxoethyl}thio)-4H-1,2,4-triazol-3-yl]ethyl} benzamide], the Kd in experiment [1] amounted to 8 µM. Moreover, the inhibition at 10 µM in experiment [2] worked out at 35%.

On to `C=CCn1c(CNC(=O)c2cccc(C)c2)cnc1SCC(=O)Nc1cccc(C(=O)OC(C)C)c1` [Molecule 75], for which the Kd in experiment [1] is 4.8 µM. Moreover, in experiment [2], the inhibition at 10 µM came to 27%.

As for `CCn1c(CCC(=O)c2ccc(Cl)cc2)nnc1SCC(=O)Nc1ccc(Br)c(C)c1C` [Molecule 82], the Kd in experiment [1] was 3.2 µM. Moreover, the inhibition at 10 µM in experiment [2] is 20%.

For the compound `CCOc1ccc(NC(=O)CC2C(=O)N(c3ccc(OC)cc3)C(=S)N2CCN2CCOCC2)cc1` (centres unmarked) [Molecule 84, N-(4-ethoxyphenyl)-2-{1-(4-methoxyphenyl)-3-[2-(4-morpholinyl)ethyl]-5-oxo-2-thioxo-4-imidazolidinyl}acetamide], in experiment [1], the Kd is 15.6 µM. The inhibition at 10 µM in experiment [2] turned out to be 19%.

For `COC(=O)c1ccccc1-c1ccc(/C=C2/SC(=S)N(Cc3ccccc3)C2=O)o1` [Molecule C-13, methyl 2-{5-[(3-benzyl-4-oxo-2-thioxo-1,3-thiazolidin-5-ylidene)methyl]-2-furyl}benzoate], the Kd in experiment [1] stood at 4.8 ± 0.2 µM. Further, the IC50 in experiment [2] (ADA method, read-out: estimated IC50 for competing with the binding of scFv G4G11 with Syk) is about 4 µM. Besides, the inhibition at 10 µM in experiment [2] amounted to 81%.

Broadly, the Kd is a measure of binding affinity in units of concentration. Broadly, the inhibition is the change of the read-out against control, counted positive when it falls. The IC50 is the midpoint of a concentration-inhibition curve.
